Reference: publication PMC9005681, “Use of AD Informer Set compounds to explore validity of novel targets in Alzheimer's disease pathology” (Alzheimer's & Dementia : Translational Research & Clinical …, 2022)
Several values for one entry are separate records, joined by “and”; a condition that tells them apart may be missing. Identical values can stand only once.

Experiments:
Assay in all cases: PDSP GPCR panel primary binding assays at 10 μM
[1] = target: T1, cloned human or rodent CNS receptors, channels, and transporters (PDSP panel) (Homo sapiens, UniProt P08908); conditions: 5-HT1A, primary assay
T1 construct: expressed in transfected cells
T1 sequence (P08908 1-422): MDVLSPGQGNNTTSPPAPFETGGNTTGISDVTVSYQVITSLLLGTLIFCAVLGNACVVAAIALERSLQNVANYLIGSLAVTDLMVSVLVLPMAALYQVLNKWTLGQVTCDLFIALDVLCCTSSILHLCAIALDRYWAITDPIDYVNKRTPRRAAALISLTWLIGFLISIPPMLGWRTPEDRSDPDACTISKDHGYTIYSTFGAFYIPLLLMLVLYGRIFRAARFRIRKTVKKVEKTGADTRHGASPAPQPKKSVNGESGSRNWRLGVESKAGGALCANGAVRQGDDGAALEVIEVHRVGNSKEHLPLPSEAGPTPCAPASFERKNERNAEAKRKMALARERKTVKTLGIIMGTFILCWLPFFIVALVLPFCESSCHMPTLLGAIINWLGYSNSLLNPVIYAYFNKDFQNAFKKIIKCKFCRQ
How it was run: (§1)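 Radioligand displacement at cloned human or rodent CNS targets: 46–47 primary binding assays run in quadruplicate at 10 μM. Targets where the compound displaced an average of >50% of radiolabeled standard ligand went to secondary binding in 11-point dose-response, in triplicate; none run for H3, PBR or GABAA.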

[2] = target: T2, cloned human or rodent CNS receptors, channels, and transporters (PDSP panel) (Homo sapiens, UniProt P31645); conditions: SERT, primary assay
T2 construct: expressed in transfected cells
How it was run: as §1

[3] = target: T3, cloned human or rodent CNS receptors, channels, and transporters (PDSP panel) (Homo sapiens, UniProt P28222); conditions: 5-HT1B, primary assay
T3 construct: expressed in transfected cells
How it was run: as §1

[4] = target: T4, cloned human or rodent CNS receptors, channels, and transporters (PDSP panel) (Homo sapiens, UniProt P41145); conditions: KOR, primary assay
T4 construct: expressed in transfected cells
How it was run: as §1

[5] = target: T5, cloned human or rodent CNS receptors, channels, and transporters (PDSP panel) (Rattus norvegicus, UniProt P16257); conditions: PBR, primary assay
T5 construct: expressed in transfected cells
How it was run: as §1

[6] = target: T6, cloned human or rodent CNS receptors, channels, and transporters (PDSP panel) (Homo sapiens, UniProt P35367); conditions: H1, primary assay
T6 construct: expressed in transfected cells
How it was run: as §1

[7] = target: T7, cloned human or rodent CNS receptors, channels, and transporters (PDSP panel) (Homo sapiens, UniProt P08912); conditions: M5, primary assay
T7 construct: expressed in transfected cells
T7 sequence (P08912 1-532): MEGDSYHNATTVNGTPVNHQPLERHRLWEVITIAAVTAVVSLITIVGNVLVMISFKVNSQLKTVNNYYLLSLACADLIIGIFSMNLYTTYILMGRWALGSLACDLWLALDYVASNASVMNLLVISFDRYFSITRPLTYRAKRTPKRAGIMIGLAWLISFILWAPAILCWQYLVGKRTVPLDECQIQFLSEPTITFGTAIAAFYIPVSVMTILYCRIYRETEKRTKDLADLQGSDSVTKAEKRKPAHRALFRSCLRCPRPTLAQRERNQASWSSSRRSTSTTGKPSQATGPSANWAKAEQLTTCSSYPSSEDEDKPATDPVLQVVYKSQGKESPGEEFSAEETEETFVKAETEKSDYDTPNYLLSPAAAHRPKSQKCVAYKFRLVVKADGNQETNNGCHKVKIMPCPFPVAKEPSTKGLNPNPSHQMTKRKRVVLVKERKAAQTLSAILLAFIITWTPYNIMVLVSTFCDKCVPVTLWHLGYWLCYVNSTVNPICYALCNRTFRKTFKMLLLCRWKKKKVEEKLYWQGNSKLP
How it was run: as §1

[8] = target: T8, cloned human or rodent CNS receptors, channels, and transporters (PDSP panel) (Homo sapiens, UniProt P21917); conditions: D4, primary assay
T8 construct: expressed in transfected cells
T8 sequence (P21917 1-419): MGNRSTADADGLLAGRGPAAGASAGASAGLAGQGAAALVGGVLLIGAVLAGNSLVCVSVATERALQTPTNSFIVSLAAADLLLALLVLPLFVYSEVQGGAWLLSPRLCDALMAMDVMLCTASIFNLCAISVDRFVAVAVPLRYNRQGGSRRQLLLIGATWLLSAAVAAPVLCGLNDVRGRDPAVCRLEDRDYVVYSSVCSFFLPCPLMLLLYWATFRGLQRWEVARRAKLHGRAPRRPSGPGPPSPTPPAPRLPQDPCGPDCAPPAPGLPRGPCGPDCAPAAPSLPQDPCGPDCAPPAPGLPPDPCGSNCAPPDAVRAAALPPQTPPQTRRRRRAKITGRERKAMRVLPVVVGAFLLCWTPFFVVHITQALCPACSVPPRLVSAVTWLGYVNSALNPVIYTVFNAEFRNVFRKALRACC
How it was run: as §1

[9] = target: T9, cloned human or rodent CNS receptors, channels, and transporters (PDSP panel) (Homo sapiens, UniProt P28223); conditions: 5-HT2A, primary assay
T9 construct: expressed in transfected cells
How it was run: as §1

T6 sequence (P35367 whole entry): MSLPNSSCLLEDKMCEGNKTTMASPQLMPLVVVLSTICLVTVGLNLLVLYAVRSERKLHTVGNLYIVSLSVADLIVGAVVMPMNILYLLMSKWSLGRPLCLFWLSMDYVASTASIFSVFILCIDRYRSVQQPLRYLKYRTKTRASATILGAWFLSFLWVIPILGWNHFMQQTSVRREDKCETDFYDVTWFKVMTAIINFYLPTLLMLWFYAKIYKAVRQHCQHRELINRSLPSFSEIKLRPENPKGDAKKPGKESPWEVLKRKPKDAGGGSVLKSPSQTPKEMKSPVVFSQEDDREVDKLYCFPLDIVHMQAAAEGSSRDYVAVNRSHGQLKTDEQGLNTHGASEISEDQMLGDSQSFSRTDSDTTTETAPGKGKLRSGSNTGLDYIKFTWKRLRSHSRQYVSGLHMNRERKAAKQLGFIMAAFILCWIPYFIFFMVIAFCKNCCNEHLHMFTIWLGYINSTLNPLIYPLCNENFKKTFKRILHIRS
T4 sequence (P41145 whole entry): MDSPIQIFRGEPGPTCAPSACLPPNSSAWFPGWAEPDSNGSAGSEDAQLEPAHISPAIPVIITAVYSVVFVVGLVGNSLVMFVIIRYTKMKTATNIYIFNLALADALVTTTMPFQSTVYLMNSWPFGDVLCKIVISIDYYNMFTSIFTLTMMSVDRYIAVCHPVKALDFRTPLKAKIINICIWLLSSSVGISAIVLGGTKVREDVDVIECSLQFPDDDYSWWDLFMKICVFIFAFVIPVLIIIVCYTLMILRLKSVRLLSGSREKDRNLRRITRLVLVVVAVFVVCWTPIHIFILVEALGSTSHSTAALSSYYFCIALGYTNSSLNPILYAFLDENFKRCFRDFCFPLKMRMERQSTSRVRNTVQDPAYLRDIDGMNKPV
T2 sequence (P31645 whole entry): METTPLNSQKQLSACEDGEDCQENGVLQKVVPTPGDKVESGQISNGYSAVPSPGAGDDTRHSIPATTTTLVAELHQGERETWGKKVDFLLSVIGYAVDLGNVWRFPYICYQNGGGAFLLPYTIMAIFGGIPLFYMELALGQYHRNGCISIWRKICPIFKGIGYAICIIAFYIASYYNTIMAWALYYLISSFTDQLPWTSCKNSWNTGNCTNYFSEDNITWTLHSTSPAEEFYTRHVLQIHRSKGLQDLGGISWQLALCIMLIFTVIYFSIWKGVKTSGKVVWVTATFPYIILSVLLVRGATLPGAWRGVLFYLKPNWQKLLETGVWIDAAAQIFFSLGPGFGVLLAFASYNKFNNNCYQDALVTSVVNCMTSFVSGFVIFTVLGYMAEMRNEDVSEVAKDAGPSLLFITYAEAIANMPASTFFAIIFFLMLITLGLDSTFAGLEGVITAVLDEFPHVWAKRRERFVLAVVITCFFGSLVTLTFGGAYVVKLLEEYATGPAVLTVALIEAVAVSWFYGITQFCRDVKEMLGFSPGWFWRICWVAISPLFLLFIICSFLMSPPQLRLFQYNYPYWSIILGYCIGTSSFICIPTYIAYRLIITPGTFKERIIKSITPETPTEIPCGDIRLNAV
T3 sequence (P28222 whole entry): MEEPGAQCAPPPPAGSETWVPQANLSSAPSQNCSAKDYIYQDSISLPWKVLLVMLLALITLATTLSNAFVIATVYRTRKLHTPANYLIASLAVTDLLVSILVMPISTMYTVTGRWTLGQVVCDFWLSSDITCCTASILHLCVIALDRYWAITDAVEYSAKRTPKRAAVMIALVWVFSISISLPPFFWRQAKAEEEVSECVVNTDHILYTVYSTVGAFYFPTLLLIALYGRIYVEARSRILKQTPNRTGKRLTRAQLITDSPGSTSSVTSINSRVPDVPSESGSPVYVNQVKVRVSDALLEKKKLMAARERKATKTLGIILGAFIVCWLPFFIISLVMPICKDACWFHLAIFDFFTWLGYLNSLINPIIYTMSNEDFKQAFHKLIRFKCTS
T9 sequence (P28223 whole entry): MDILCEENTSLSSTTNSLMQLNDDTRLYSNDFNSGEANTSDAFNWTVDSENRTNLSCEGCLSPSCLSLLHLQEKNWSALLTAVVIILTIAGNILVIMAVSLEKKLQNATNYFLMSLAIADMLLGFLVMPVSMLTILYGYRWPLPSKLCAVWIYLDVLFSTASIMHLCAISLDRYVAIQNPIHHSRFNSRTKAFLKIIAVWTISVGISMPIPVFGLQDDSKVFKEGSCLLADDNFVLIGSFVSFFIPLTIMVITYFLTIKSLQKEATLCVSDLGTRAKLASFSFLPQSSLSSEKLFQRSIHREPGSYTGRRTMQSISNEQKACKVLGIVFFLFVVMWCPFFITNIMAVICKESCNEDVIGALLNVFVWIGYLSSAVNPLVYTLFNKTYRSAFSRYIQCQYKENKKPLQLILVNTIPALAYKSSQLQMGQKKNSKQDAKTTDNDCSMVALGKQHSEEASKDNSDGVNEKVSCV

O=C(NC1CC1)C(=O)C(Cc1ccccc1)NC(=O)[C@H]1CCC(=O)N1Cc1ccccc1 (some centres unmarked) [UNC10302676A, ABT-957 (Alicapistat)]
Mean % ([1]; mean inhibition): 3.84%
Inhibition 1 ([1]; replicate 1): 12.84%
Inhibition 2 ([1]; replicate 2): 2.5%
Inhibition 3 ([1]; replicate 3): 6.64%
Inhibition 4 ([1]; replicate 4): -6.64%
Mean % ([2]; mean inhibition): -3.96% and -1.74%
Inhibition 1 ([2]; replicate 1): 1.77% and -7.1%
Inhibition 2 ([2]; replicate 2): -9.07% and 1.55%
Inhibition 3 ([2]; replicate 3): -5.87% and 7.1%
Inhibition 4 ([2]; replicate 4): -2.67% and -8.51%
Mean % ([3]; mean inhibition): 8.92%
Inhibition 1 ([3]; replicate 1): 9.16%
Inhibition 2 ([3]; replicate 2): 10.49%
Inhibition 3 ([3]; replicate 3): 8.83%
Inhibition 4 ([3]; replicate 4): 7.18%
Mean % ([4]; mean inhibition): -23.29%
Inhibition 1 ([4]; replicate 1): -17.69%
Inhibition 2 ([4]; replicate 2): -22.73%
Inhibition 3 ([4]; replicate 3): -22.5%
Inhibition 4 ([4]; replicate 4): -30.23%
Inhibition 1 ([5]; replicate 1): 2.97% and 17.9%
Inhibition 2 ([5]; replicate 2): -4.68% and 2.11%
Inhibition 3 ([5]; replicate 3): 1.91% and 4.11%
Inhibition 4 ([5]; replicate 4): -8.81% and 7.78%
Mean % ([6]; mean inhibition): 47.25%
Inhibition 1 ([6]; replicate 1): 60.11%
Inhibition 2 ([6]; replicate 2): 50.46%
Inhibition 3 ([6]; replicate 3): 44.57%
Inhibition 4 ([6]; replicate 4): 33.86%
Mean % ([7]; mean inhibition): -3.53%
Inhibition 1 ([7]; replicate 1): 2.18%
Inhibition 2 ([7]; replicate 2): -7.48%
Inhibition 3 ([7]; replicate 3): -4.57%
Inhibition 4 ([7]; replicate 4): -4.26%
Mean % ([8]; mean inhibition): 0.58%
Inhibition 1 ([8]; replicate 1): 5.07%
Inhibition 2 ([8]; replicate 2): -11.66%
Inhibition 3 ([8]; replicate 3): 8.7%
Inhibition 4 ([8]; replicate 4): 0.19%
Mean % ([9]; mean inhibition): 1.79%
Inhibition 1 ([9]; replicate 1): 6.22%
Inhibition 2 ([9]; replicate 2): 7.05%
Inhibition 3 ([9]; replicate 3): 5.57%
Inhibition 4 ([9]; replicate 4): -11.7%
